This passage reports IC50 and Screen test failure results from patent US4738954A, “Novel N^6 -substituted-5'-oxidized adenosine analogs” (Warner-Lambert Company, priority 1985, dated 1988).

One series has as its target T1, adenosine A1 receptor (Rattus norvegicus, UniProt P25099).
T1 construct: Whole brain minus cerebellum and brainstem from male Long Evans rats; from tissue; host or cells: rat whole brain minus cerebellum and brainstem, membranes
T1 sequence (P25099 1-326): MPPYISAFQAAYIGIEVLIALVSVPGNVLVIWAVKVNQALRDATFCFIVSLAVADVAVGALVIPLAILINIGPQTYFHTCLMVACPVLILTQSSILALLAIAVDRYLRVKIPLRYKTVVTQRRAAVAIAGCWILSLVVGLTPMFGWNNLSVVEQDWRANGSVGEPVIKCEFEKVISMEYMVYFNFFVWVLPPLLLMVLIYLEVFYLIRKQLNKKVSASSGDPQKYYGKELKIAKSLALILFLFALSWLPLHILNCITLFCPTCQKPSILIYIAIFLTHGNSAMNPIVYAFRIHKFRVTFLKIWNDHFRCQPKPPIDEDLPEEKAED
Nature of the series: Adenosine Receptor Binding--A1 Receptor Affinity (RBA1), [3H]-CHA displacement. Conditions: 1.0 nM [3H]-CHA, rat brain, 25° C, 1 h; read-out: RBA-1 (IC50, A1 receptor affinity). As to the method:
Adenosine Receptor Binding--A1 Receptor Affinity (RBA1)
Whole brain minus cerebellum and brainstem from male Long Evans rats (105-200 g) was homogenized in 30 volumes of ice-cold 0.05M Tris-HCl buffer pH 7.7 using a Brinkman Polytron PT-10, (setting number 6 for 20 seconds) and centrifuged for ten minutes at 20,000×g (Sorvall RC-2), 4° C. The supernatant was discarded, and the pellet was resuspended and centrifuged as before. The pellet was resuspended in 20 ml Tris-HCl buffer containing two International Units/ml of adenosine deaminase (Sigma type III from calf intestinal mucosa), incubated at 37° C. for 30 minutes, then subsequently at 0° C. for ten minutes. The homogenate was again centrifuged, and the final pellet was resuspended in ice-cold 0.05M Tris-HCl buffer pH 7.7 to a concentration of 20 mg/ml original wet tissue weight and used immediately.
Tissue homogenate (10 mg/ml) was incubated in 0.05M Tris-HCl buffer pH 7.7 containing 1.0 nM ((^3 H))-N^6 -cyclohexyladenosine ([^3 H]-CHA) with or without test agents in triplicate for one hour at 25° C. Incubation volume was 2 ml. Unbound [^3 H]-CHA was separated by rapid filtration under reduced pressure through Whatman glass fiber (GF/B) filters. The filters were rinsed three times with 5 ml of ice cold 0.05M Tris-HCl buffer pH 7.7. The radio-labeled ligand retained on the filter was measured by liquid scintillation spectrophotometry after shaking the filters for one hour or longer on a mechanical shaker in 10 ml of Beckman Ready-Solv HP scintillation cocktail.
Nonspecific binding was defined as the binding which occured in the presence of 1 mM theophylline. The concentration of test agent which inhibited 50% of the specific binding (IC50) was determined by nonlinear computer curve fit. The Scatchard plot was calculated by linear regression of the line obtained by plotting the amount of radioligand bound (pmoles/gram of tissue) versus [formula] Since the amount of radioligand bound was a small fraction of the total amount added, free radioligand was defined as the concentration of (nM) of radioligand added to the incubation mixture. The Hill coefficient was calculated by linear regression of the line obtained by plotting the log of the bound radioligand vs the log of the [formula] The maximal number of binding sites (Bmax) was calculated from the Scatchard plot.

The subject of series [1] is mice falling off the inverted screen. Nature of the series: Mouse Activity and Screen Test Procedure (MAST): screen test. In kind it is in vivo, Swiss-Webster male mice. The text has this: The compounds of the invention are new chemical substances which are useful as pharmaceutical agents for the treatment of psychoses. The antipsychotic activity of representative compounds of the invention was established by the Mouse Activity and Screen Test Procedure (MAST) described below. Animals Nine unfasted Swiss-Webster male mice weighing 20-30 g are equally divided into three groups for each drug dose to be tested. That is, data for each dose level was generated by three separate groups of three mice each. Drugs A minimum of three dose levels (10, 30, and 100 mg/kg) are tested for each drug. Treatments are administered intraperitoneally one hour prior to testing. All dosages are calculated as parent compound and given in volumes of 10 ml/kg. Compounds are dissolved or suspended in 0.2% Methocel. Control animals are injected with Methocel. Testing: A two part testing procedure is started one hour postinjection. First, the screen test (ST) is performed (see Pharmac. Biochem. Behav. 6, 351-353, 1977). Briefly this test consists of placing mice on individual wire screens which are then rotated 180 degrees at the start of a 60 second observation period. The number of mice falling off the inverted screen is recorded. Data: The data obtained from the screen test are expressed as percent of mice falling off the screen. Data derived from locomotor activity of drug treated mice are compared to the activity of vehicle treated animals and are expressed as percent inhibition of spontaneous locomotion. All percentages reported for inhibition of locomotion (LI) are based upon data accumulated for one hour. Both phases of testing are graded: A=60-100%; C=31-59%; and N=0-30%. An overall dose rating is obtained by the following criteria: LAD refers to the lowest dose at which an A rating is achieved. […] Utilizing this procedure, an overall dose rating of A was obtained for the noted compound at the indicated dose. The compounds are identified in the Examples.

SMILES strings stand for the structures.

As usually defined, the IC50 is the concentration that gives 50% inhibition. As to `CCOC(=O)[C@H]1O[C@@H](n2cnc3c(NCC(c4ccccc4)c4ccccc4)ncnc32)[C@H](O)[C@@H]1O` [Example 5, N6-(2,2-diphenylethyl)-5-adenosine-5'-ethylcarboxylate], the IC50 at adenosine A1 receptor was found to be 291 nM. For the same compound, the Screen test failure came to 11% in series [1] (3 mg/kg IP), 0% in series [1] (10 mg/kg IP) and 0% in series [1] (30 mg/kg IP).
Consider `CCNC(=O)[C@H]1O[C@@H](n2cnc3c(NCc4cccc5ccccc45)ncnc32)[C@H](O)[C@@H]1O` [Example 6, N-6-Naphthylmethyladenosine-5'-ethylcarboxamide], for which the IC50 on adenosine A1 receptor stood at 49 nM. Further, the Screen test failure came out at 0% in series [1] (0.03 mg/kg IP); 0% in series [1] (0.1 mg/kg IP); 0% in series [1] (0.3 mg/kg IP); 11% in series [1] (1 mg/kg IP); 11% in series [1] (3 mg/kg IP); 0% in series [1] (10 mg/kg IP).
For `CCNC(=O)[C@H]1O[C@@H](n2cnc3c(NCC(c4ccccc4)c4ccccc4)ncnc32)[C@H](O)[C@@H]1O` [Example 3, N^6-(2,2-diphenylethyl)-adenosine-5'-ethylcarboxamide], the IC50 on adenosine A1 receptor was determined as 16 nM. For the same compound, the Screen test failure is reported as 0% in series [1] (0.1 mg/kg IP); 0% in series [1] (0.3 mg/kg IP); 0% in series [1] (1 mg/kg IP); 0% in series [1] (3 mg/kg IP); 11% in series [1] (10 mg/kg IP); 33% in series [1] (30 mg/kg IP).
With `CCNC(=O)[C@H]1O[C@@H](n2cnc3c(N[C@H](C)Cc4ccccc4)ncnc32)[C@H](O)[C@@H]1O` [Example 1, (R)-N-6-[(2-phenyl-1-methyl)ethyl]-adenosine-5'-ethylcarboxamide], the IC50 at adenosine A1 receptor turned out to be 2 nM. The Screen test failure stood at 0% in series [1] (0.01 mg/kg IP); 0% in series [1] (0.03 mg/kg IP); 33% in series [1] (0.1 mg/kg IP); 11% in series [1] (0.3 mg/kg IP); 33% in series [1] (1 mg/kg IP); 88% in series [1] (3 mg/kg IP). The Screen test failure in series [1] (10 mg/kg IP) and in series [1] (30 mg/kg IP) was 100% throughout.
On to `CCOC(=O)[C@H]1O[C@@H](n2cnc3c(NC4CC5CCC4C5)ncnc32)[C@H](O)[C@@H]1O` (relative stereo) [Example 8, N-6-Norbornyl-adenosine-5'ethylcarboxylate], for which, on adenosine A1 receptor, the IC50 worked out at 4 nM.
